Assay results as given in PMC5013046, “A Sex Pheromone Receptor in the Hessian Fly Mayetiola destructor (Diptera, Cecidomyiidae)” (Frontiers in Cellular Neuroscience, 2016).

Target: T1, MdesOR115 (with MdesOrco; HEK293/TMO/MdesOR115) (Mayetiola destructor, UniProt A0A1D8GZG1)
T1 construct: with Odorant receptor coreceptor
T1 sequence (A0A1D8GZG1 1-412): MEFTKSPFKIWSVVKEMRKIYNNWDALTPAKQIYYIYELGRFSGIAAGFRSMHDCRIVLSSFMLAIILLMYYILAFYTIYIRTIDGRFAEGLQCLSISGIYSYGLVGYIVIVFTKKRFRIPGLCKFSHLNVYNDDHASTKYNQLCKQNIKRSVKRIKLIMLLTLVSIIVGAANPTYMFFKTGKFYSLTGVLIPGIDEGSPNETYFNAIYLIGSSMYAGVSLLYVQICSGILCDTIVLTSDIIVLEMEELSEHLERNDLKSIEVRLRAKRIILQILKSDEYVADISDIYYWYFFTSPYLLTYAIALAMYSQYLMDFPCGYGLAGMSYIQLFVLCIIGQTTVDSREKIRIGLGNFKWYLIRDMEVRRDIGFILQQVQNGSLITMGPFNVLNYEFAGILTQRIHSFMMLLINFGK
T1 sequence (A0A1D8GZG0 1-466 partner): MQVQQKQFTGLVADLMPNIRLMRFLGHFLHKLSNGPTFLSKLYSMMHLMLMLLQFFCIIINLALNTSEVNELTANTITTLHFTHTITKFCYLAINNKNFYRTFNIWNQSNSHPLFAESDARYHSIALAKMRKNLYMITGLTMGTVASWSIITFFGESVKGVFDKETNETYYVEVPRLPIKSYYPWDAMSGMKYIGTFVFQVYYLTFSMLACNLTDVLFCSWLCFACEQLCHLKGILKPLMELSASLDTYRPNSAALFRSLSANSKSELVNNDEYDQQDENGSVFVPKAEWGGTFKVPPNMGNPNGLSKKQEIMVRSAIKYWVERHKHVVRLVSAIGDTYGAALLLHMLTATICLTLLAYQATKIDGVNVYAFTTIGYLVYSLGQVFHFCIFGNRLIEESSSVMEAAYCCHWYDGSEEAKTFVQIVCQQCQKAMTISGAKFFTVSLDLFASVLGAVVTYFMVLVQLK
Assay: fluorescent calcium assay, HEK293 cells, dose-response
Type: cell-based

EC50: 2020 to 3690 nM
Compound: CC/C=C/C=C/CCCCC[C@H](C)OC(C)=O [2S-8E,10E-13:OAc, (2S,8E,10E)-8,10-tridecadien-2-yl acetate]
